Experimental data published in ChEMBL document CHEMBL2074307, “Characterization of drug transport by the human multidrug resistance protein 3 (ABCC3)” (J Biol Chem, 2001).

How the values were obtained:
[1] = target: Multidrug resistance associated protein (Homo sapiens) (UniProt Q96QA9); assay: (§1) TP_TRANSPORTER: uptake in membrane vesicle from MRP3-expressing Sf9 cells; format: functional, cell membranes
[2] = target: Multidrug resistance associated protein (Homo sapiens) (UniProt Q96QA9); assay: TP_TRANSPORTER: increase in Etoposide intracellular accumulation (Etoposide: 2 uM, Sulfinpyrazone: 2000 uM) in MRP3-expressing fibroblast from kidney of mdr1a/1b and mrp1 (-/-) mouse; format: functional, cell-based; settings: mdr1a/1b (-/-) and mrp1 (-/-) fibroblasts
[3] = target: Multidrug resistance associated protein (Homo sapiens) (UniProt Q96QA9); assay: TP_TRANSPORTER: increase in Etoposide intracellular accumulation (Etoposide: 2 uM, Indomethacin: 500 uM) in MRP3-expressing fibroblast from kidney of mdr1a/1b and mrp1 (-/-) mouse; format: functional, cell-based; settings: mdr1a/1b (-/-) and mrp1 (-/-) fibroblasts
[4] = target: Multidrug resistance associated protein (Homo sapiens) (UniProt Q96QA9); assay: TP_TRANSPORTER: efflux in MRP3-expressing fibroblast from kidney of mdr1a/1b and mrp1 (-/-) mouse; format: functional, cell-based; settings: mdr1a/1b (-/-) and mrp1 (-/-) fibroblasts
[5] = substrate: C[C@]12CC[C@@H]3c4ccc(O)cc4CC[C@H]3[C@@H]1CC[C@@H]2O[C@@H]1O[C@H](C(=O)O)[C@@H](O)[C@H](O)[C@H]1O; assay: as §1; format: functional, cell membranes
[6] = substrate: COc1cc([C@@H]2c3cc4c(cc3[C@@H](O[C@@H]3O[C@@H]5CO[C@@H](C)O[C@H]5[C@H](O)[C@H]3O)[C@H]3COC(=O)[C@H]23)OCO4)cc(OC)c1O[C@@H]1O[C@H](C(=O)O)[C@@H](O)[C@H](O)[C@H]1O; assay: as §1; format: functional, cell membranes

In the case of N[C@@H](CCC(=O)N[C@@H](CS)C(=O)NCC(=O)O)C(=O)O, the Activity [1] is reported as “is not a substrate [-]”.

In the case of O=C1C(CC[S+]([O-])c2ccccc2)C(=O)N(c2ccccc2)N1c1ccccc1 (stereo unspecified), the Activity [2] is reported as “inhibitor [18 -> 83 % of control (clone#38), 30 -> 77 % of control (clone#77)]”.

COc1ccc2c(c1)c(CC(=O)O)c(C)n2C(=O)c1ccc(Cl)cc1 was tested, and the Activity [3] was “inhibitor [[…] -> […] % of control (clone#38), 30 -> […] % of control (clone#77)]”.

COc1cc([C@@H]2c3cc4c(cc3[C@@H](O[C@@H]3O[C@@H]5CO[C@@H](C)O[C@H]5[C@H](O)[C@H]3O)[C@H]3COC(=O)[C@H]23)OCO4)cc(OC)c1O was tested, and the Activity [4] was “substrate [+]”.

B1: Multidrug resistance associated protein (Homo sapiens), Q96QA9 (protein)
chain: MDALCGSGELGSKFWDSNLSVHTENPDLTPCFQNSLLAWVPCIYLWVALPCYLLYLRHHCRGYIILSHLSKLKMVLGVLLWCVSWADLFYSFHGLVHGRAPAPVFFVTPLVVGVTMLLATLLIQYERLQGVQSSGVLIIFWFLCVVCAIVPFRSKILLAKAEGEISDPFRFTTFYIHFALVLSALILACFREKPPFFSAKNVDPNPYPETSAGFLSRLFFWWFTKMAIYGYRHPLEEKDLWSLKEEDRSQMVVQQLLEAWRKQEKQTARHKASAAPGKNASGEDEVLLGARPRPRKPSFLKALLATFGSSFLISACFKLIQDLLSFINPQLLSILIRFISNPMAPSWWGFLVAGLMFLCSMMQSLILQHYYHYIFVTGVKFRTGIMGVIYRKALVITNSVKRASTVGEIVNLMSVDAQRFMDLAPFLNLLWSAPLQIILAIYFLWQNLGPSVLAGVAFMVLLIPLNGAVAVKMRAFQVKQMKLKDSRIKLMSEILNGIKVLKLYAWEPSFLKQVEGIRQGELQLLRTAAYLHTTTTFTWMCSPFLVTLITLWVYVYVDPNNVLDAEKAFVSVSLFNILRLPLNMLPQLISNLTQASVSLKRIQQFLSQEELDPQSVERKTISPGYAITIHSGTFTWAQDLPPTLHSLDIQVPKGALVAVVGPVGCGKSSLVSALLGEMEKLEGKVHMKGSVAYVPQQAWIQNCTLQENVLFGKALNPKRYQQTLEACALLADLEMLPGGDQTEIGEKGINLSGGQRQRVSLARAVYSDADIFLLDDPLSAVDSHVAKHIFDHVIGPEGVLAGKTRVLVTHGISFLPQTDFIIVLADGQVSEMGPYPALLQRNGSFANFLCNYAPDEDQGHLEDSWTALEGAEDKEALLIEDTLSNHTDLTDNDPVTYVVQKQFMRQLSALSSDGEGQGRPVPRRHLGPSEKVQVTEAKADGALTQEEKAAIGTVELSVFWDYAKAVGLCTTLAICLLYVGQSAAAIGANVWLSAWTNDAMADSRQNNTSLRLGVYAALGILQGFLVMLAAMAMAAGGIQAARVLHQALLHNKIRSPQSFFDTTPSGRILNCFSKDIYVVDEVLAPVILMLLNSFFNAISTLVVIMASTPLFTVVILPLAVLYTLVQRFYAATSRQLKRLESVSRSPIYSHFSETVTGASVIRAYNRSRDFEIISDTKVDANQRSCYPYIISNRWLSIGVEFVGNCVVLFAALFAVIGRSSLNPGLVGLSVSYSLQVTFALNWMIRMMSDLESNIVAVERVKEYSKTETEAPWVVEGSRPPEGWPPRGEVEFRNYSVRYRPGLDLVLRDLSLHVHGGEKVGIVGRTGAGKSSMTLCLFRILEAAKGEIRIDGLNVADIGDPILFSGTLRMNLDPFGSYSEEDIWWALELSHLHTFVSSQPAGLDFQCSEGGENLSVGQRQLVCLARALLRKSRILVLDEATAAIDLETDNLIQATIRTQFDTCTVLTIAHRLNTIMDYTRVLVLDKGVVAEFDSPANLIAARGIFYGMARDAGLA
For B1, the Km [5] was 17.7 µM and the Km [6] was 11.4 µM.
